Test results from patent US6399580B1, “Methods and compositions for stimulating tissue growth and epithelial moisturization” (The Regents of the University of California, priority 1994, dated 2002).

How the values were obtained:
hairless mouse epidermis = experiment: Epidermal / stratum corneum lipid content (HPTLC/TLC); assay type: in vivo
Experimental: Hairless mice were treated with BrCBE for 5 days as described in Example 10. The following high performance thin layer chromatograph (HPTLC) system was developed for optimal separation of ceramides and glucosylceramides for quantitation by spectrodensitometry. Extracts were applied to precleaned 10 ×20 cm HPTLC plates, 0.5 cm from lower edge of the plate and fractionated sequentially in a horizontal developmental chamber (Camag, Muttenz, Switzerland) in the following solvent systems: 1) chloroform:methanol:acetic acid (190:9:1), v/v/v) to the top, twice; 2) chloroform:methanol:acetone (76:20:4, by volume) to 30 mm. Between each development, the plate was dried for 5 minutes on a hot plate (40° C.), cooled for 2 minutes, and equilibrated in the tank with the solvents for 3 minutes. After final development, the plates were dried, cooled, dipped in charring solution (1.5% cupric sulfate in acetic acid:sulfuric acid:orthophosphoric acid:water (50:10:10:30, by volume) for 15 seconds, dried (40° .C) for 5 minutes, and then charred at 180° C. for 15 minutes. Plates were scanned with a variable wavelength scanning densitometer (Camag, Muttenz, Switzerland). Lipid amounts for each fraction were estimated using ceramides 3 and 4, and galactosylceramides 1 and 2 as reference standards (Sigma Chemical Co., St. Louis, Mo.).
The epidermal glucosylceramide content was determined in mice treated with the topical β-glucocerebrosidase inhibitors. Mice were treated with CBE for one day as described in FIG. 22. The mice were sacrificed and whole skin was excised. Subcutaneous fascia and fat were scraped off, and the samples were placed dermis side down onto […] EDTA in PBS-CMF (pH 7.4) and incubated at 37° C. for 40 min. Skin was blotted dry with a tissue and the epidermis was removed by scraping with a surgical blade. The epidermis was minced, placed into microcentrifuge vials, immediately snap frozen and stored in liquid N2 until extracted.
For extraction the tissue was soaked in 7.6 ml Bligh/Dyer extraction media (2 ml chloroform, 4 ml Methanol, 1.6 ml H2O) overnight at room temperature. The following day the tissue was shaken for 20 min. and centrifuged for 10 min. the solvent was removed and the pellet was combined with 7.6 ml Bligh/Dyer media and again shaken and centrifuged. The solvents were combined with solvent from the soaks and filtered through pre-solvent-washed Whatman 43 filter paper, 2 ml chloroform and 2 ml H2O was added to each 7.6 ml quantity of the filtrate and shaken for 10 min. The samples were then centrifuged and the upper phase discarded. The lower phase was washed with 4 ml chloroform, 4 ml MetOH, and 3.6 ml H2O (shaken for 10 min and centrifuged). The upper phase was discarded. The lower phase was dried under N2 in a 47° C. water bath. The lipid was resuspended in chloroform and weighed on the Cahn balance.
TLC was performed using 15-20 μg samples and quantitated against standard glycosylceramide and 40 μg sample for sphingolipids (Holleran, W. M. et al. (1993) J. Clin. Invest. 91:1656-1664).
Both glucosylceramide and ceramide content was then determined in lower (stratum basale) and upper (stratum spinosum, stratum granulosum and stratum corneum) epidermis (FIG. 23). Following 24 hours of CBE treatment samples were excised following treatment (as in Example 16).

hairless mouse skin = experiment: Appearance and texture of treated skin; assay type: in vivo; details: application of CBE
Experimental: To determine whether inhibitors of β-glucocerebrosidase would cause more profound effects than applications of exogenous GlcCER alone (examples 5&6), we next applied the specific, suicide inhibitor, bromoconduritol-B-epoxide (BrCBE) to intact hairless mouse skin (Simonsen Laboratories, Gilroy, Calif.) (Holleran, W. M. et al., J. Clin. Invest. (1993) 91:1656-1664). BrCBE (325 nmol in 20 μl propylene glycol:ethanol, 7:3 vols) was applied once daily for 0-14 days. (Holleran, W. M. et al. (1994) J. Clin. Inv. 93:1756-1764)

murine epidermis = experiment: Total epidermal DNA content after topical CBE; assay type: in vivo, mouse
Experimental: In addition to measuring DNA synthesis by [^3H]-thymidine incorporation, total epidermal DNA content was determined after applications of CBE. 100 μl of epidermal homogenate was obtained from mice and stored at −70° C. Samples were diluted with Hoechst buffer (pH 7.4) in duplicate. Each sample was brought up to 1 ml with Hoechst buffer. 1 ml of bisbenzimadazole (diluted 1:1000 with dist H2O) was added and samples were vortexed. Standards were prepared using 134 μg/ml calf thymus DNA diluted 1:10 with Hoechst buffer. Final concentration of DNA ranged from 0.067 to 0.335 μg. All samples and standards were covered for 2 hours and absorbance at […] was determined (LaBarca, C. and Paigan (1980) Anal. Biochem. 102:344-352).

[1] = one day of CBE treatment, FIG. 23

With `O[C@H]1[C@H](O)[C@@H](O)[C@@H]2O[C@@H]2[C@@H]1O` (racemic) [CBE, conduritol-B-epoxide] the “level of glucosylceramide, higher in treated samples” value (hairless mouse epidermis; 20 μl of 250 nmol/μl CBE tid x5d, 250 mm^2 skin sample) was 34-147%, the “level of glucosylceramide, higher in treated samples” value (hairless mouse epidermis; 40 μl of 250 nmol/μl CBE tid x3d, 500 mm^2 skin sample) was 57-152% and the epidermal glucosylceramide content (hairless mouse epidermis; one day of CBE application, FIG. 22) was “invariably increased”. The “ceramide levels of upper and lower epidermis” value (hairless mouse epidermis; [1]) was “not significantly altered”, the “glucosylceramide content of upper and lower epidermis” value (hairless mouse epidermis; [1]) was “significant increase” and the “thickness, firmness and pliability of murine skin” value (hairless mouse skin) was “increased”. The “DNA concentration, higher than untreated samples” value (murine epidermis; 24 hours following CBE treatment, FIG. 20 & 21) was 6-81%, the “DNA concentration, higher than untreated samples” value (murine epidermis; 3 days of CBE-treatment, FIG. 19) was 45-113% and the “DNA concentration, higher than untreated skin samples” value (murine epidermis; 5 days of CBE-treatment, FIG. 18) was 46-331%.
